Data reported in patent US20060106026A1, “4-(4-methylpiperazin-1-ylmethyl)-n-[4-pyridin-3-yl)pyrimidin-2-ylamino)phenyl]-benzamide for treating anaplastic thyroid cancer” (priority 2002, published 2006).
Like-named read-outs stand apart in the source and are kept apart here.

Columns and labels:
[1] = test system: ARO
Excerpt: (§1) Human anaplastic thyroid carcinoma cell lines FRO and ARO were used with respectively, undetectable or mutant p53 in codon 273 (Fagin et al., J. Clin. Invest. 1993, 91:179-184). Human papillary carcinoma cell line NPA has p53 mutations in codons 223 and 226 (Fagin et al., J. Clin. Invest. 1993, 91:179-184), while TPC-1 and KTC-1 papillary thyroid carcinoma cell lines are wild type for p53 (Kurebayashi et al., J. Clin. Endocrinol. Metab. 2000, 85:2889-96). Stable transfection with a vector expressing wild type p53 was used to produce the 1F3 cell line from FRO cells (Zeki et al., Int. J. Cancer, 1998, 75:391-5). […] Primary human thyroid cell cultures were established as described previously (Kawabe et al., J. Clin. Endocrinol. Metab., 1989, 68:1174-83) and maintained in a 2:1 mixture of F12 Nutrient Mixture and DEM, supplemented with 3% fetal bovine serum and penicillin-streptomycin (all reagents from Invitrogen Life Technologies, Paisley, UK).
(§2) The kinetics of cell growth were examined using a cytometer as follows: cells were seeded at a density of 0.5 or 0.1×10^5 cells per well in 12-well culture plates. […] Both experiments were performed at least three times.

[2] = test system: NPA
Excerpt: as §1, §2

[3] = test system: primary thyrocytes (PT); settings: read-out: IC50 values, mean (50% reduction in cell growth), 72 h of incubation, n=3
Excerpt: as §1, §2

[4] = test system: TPC-1; settings: read-out: IC50 values, mean (50% reduction in cell growth); TPC-1, 72 h of incubation, n=3
Excerpt: as §1, §2

[5] = test system: FRO
Excerpt: as §1, §2

[6] = test system: KTC-1; settings: read-out: IC50 values, mean (50% reduction in cell growth); KTC-1, 72 h of incubation, n=3
Excerpt: as §1, §2

[7] = read-out: IC50 (cytostatic effect)
[8] = read-out: IC50 values, mean (50% reduction in cell growth), 72 h of incubation, n=3

Structure (SMILES): CS(=O)(=O)O.Cc1ccc(NC(=O)c2ccc(CN3CCN(C)CC3)cc2)cc1Nc1nccc(-c2cccnc2)n1 [SALT I, 4-[(4-methyl-1-piperazin-1-ylmethyl)-N-[4-methyl-3-[[4-(3-pyridinyl)-2-pyrimidinyl]amino]phenyl]benzamide methanesulfonate]
- IC50 [1, 7]: 5.9 µM
- IC50 [1, 8]: 8.1 µM
- IC50 ([2]; read-out: IC50, as stated in the discussion, NPA cells): 16 µM
- IC50 ([2]; read-out: IC50 values, mean (50% reduction in cell growth), NPA, 72 h of incubation, n=3): 15.6 µM
- IC50 [3]: 24.7 µM
- IC50 [4]: 29.5 µM
- IC50 [5, 7]: 7.8 µM
- IC50 [5, 8]: 6.4 µM
- IC50 [6]: 22.6 µM
